Measurements published in patent US20190328721A1, “METHOD OF ACTIVATING DENDRITIC CELLS” (KOREA INSTITUTE OF SCIENCE AND TECHNOLOGY, priority 2018, published 2019).

Experiments:
CD103 DCs = experiment: Phagocytosis of cancer cells by dendritic cells excised from tumor tissues; assay type: in vivo; settings: compared with CD103 DCs from control mice
Source text: The present inventors excised dendritic cells from tumor tissues and analyzed the phagocytosis of dendritic cells against cancer cells in vitro using the same method as described in Example 1-1.

[1] = test system: CT26.CL25 colon cancer cells expressing mCherry; experiment: Phagocytosis of mCherry-expressing cancer cells in the tumor model; assay type: in vivo, mice; settings: conditions of Example 2-3
Procedure: In order to confirm whether or not the ROCK inhibitor Y27632 induces cancer cell phagocytosis in a tumor model, CT26.CL25 colon cancer cells expressing mCherry were prepared and used to create a tumor model by injecting tumor cells into mice, and it was analyzed whether phagocytosis of macrophages and dendritic cells against cancer cells expressing mCherry was increased under the same conditions as in Example 2-3.

CT26.CL25 cancer cells = experiment: CT26.CL25 tumor model; assay type: in vivo, Balb/c wild type mice; settings: 10 mg/kg intravenous
Procedure: CT26.CL25 cancer cells (1×10^6) expressing β-galactosidase were subcutaneously injected into the left back of a Balb/c wild type mice to generate a tumor model Similarly, an […] tumor model was prepared by subcutaneously injecting melanoma cell line B16F10-Ova cells (5×10^5) into the left back of C57L/B6 wild-type mice to induce cancer.
In the case of the CT26.CL25 cancer cell line, 6 days after the injection of the cancer cells, and in the case of B 16F10-Ova, 9 days after the injection of the cancer cells, Y27632 was administered by intravenous injection at a dose of 10 mg/kg as indicated in FIG. 8a. In the case of the CT26.CL25 model, the mice were sacrificed on the 22nd day after the injection of the cancer cells and in the case of the B16F10-Ova cancer model, the mice were sacrificed on the 20th day after the injection of the cancer cells (FIG. 8A). As a negative control, phosphate-buffered saline was administered instead of Y27632.
The tumor tissues of the mice were excised, an ex vivo image was taken and the tumor tissue were weighed (FIG. 8B). In addition, before the mice were sacrificed, changes in body weights were measured at intervals of 3 days from the 6th day of the cancer cell injection in the CT26.CL25 cancer model and at intervals of 3 days from the 9th day in the B16F10-Ova cancer model (FIG. 8c). Length (L) and width (W) of the tumor tissues were measured, and the volume of the tumor tissues over time was calculated using the following formula (FIGS. 8D and 8E):
The volume of tumor tissue (V[mm^3])=(L[mm])[…] (W[mm])^2×0.5.

[2] = test system: macrophages (F4/80+ cells) and dendritic cells (CD11c+ cells); experiment: In vivo phagocytosis of injected apoptotic thymocytes by spleen phagocytes; set-up: species or system mice; settings: 10 mg/kg intraperitoneally; spleen after 1 hour
Procedure: The present inventors investigated whether the phagocytosis caused by the ROCK inhibitor could be enhanced not only in vitro but also in vivo. For this purpose, thymocytes stained with CFSE (carboxyfluorescein succinimidyl ester, Thermo Fisher Scientific, Inc., USA) and in which apoptosis was induced by 1 μM dexamethasone were injected to the blood vessel of mice who were pre-injected with 10 mg/kg of Y27632 intraperitoneally. After 1 hour, the spleen was extracted from the mice and the spleen was single celled. The phagocytic activities of macrophages (F4/80^+ cells) and dendritic cells (CD11c^+ cells) against apoptotic thymocytes were analyzed (FIGS. 7B and 7C).

OT-1 T cells = experiment: Proliferation of injected CFSE-stained OT-1 T cells in B16F10-Ova-bearing mice; assay type: in vivo; settings: 3 days after injection
Procedure: Specifically, Y27632 was administered to the B16F10-Ova-bearing cancer model mice according to the administration schedule described in Example 2-1, and OT-1 T cells stained with CFSE (carboxyfluorescein succinimidyl ester, Thermo Fisher Scientific, Inc., USA) were injected into the cancer model mice and the degree of proliferation of T cells was confirmed 3 days later (FIG. 14A).

SMILES: C[C@@H](N)[C@H]1CC[C@H](C(=O)Nc2ccncc2)CC1 [Y27632]
- phagocytosis against cancer cells of CD103 DCs isolated from treated mice (CD103 DCs): significantly enhanced
- phagocytosis of tumor dendritic cells against cancer cells expressing mCherry [1]: increased about two-fold
- phagocytosis of tumor macrophages against cancer cells expressing mCherry [1]: increased about two-fold
- body weight of the mice (CT26.CL25 cancer cells): no significant change
- volume of the tumors (CT26.CL25 cancer cells): significantly decreased
- weight of the tumors (CT26.CL25 cancer cells; day 22): significantly decreased
- phagocytosis of spleen dendritic cells against apoptotic thymocytes [2]: significantly enhanced
- phagocytosis of spleen macrophages against apoptotic thymocytes [2]: significantly enhanced
- proliferation of OT-1 T cells (OT-1 T cells): significantly increased
